This note sets out measurements from ChEMBL document CHEMBL1201862, “PubChem BioAssay data set” (2004).

The structures appear in SMILES notation.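 Briefly, cells in 96-well plates were exposed to five compound concentrations for 48 h, and endpoints were estimated by linear interpolation. GI50 is the concentration that inhibits growth by half.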 Calls of active or inactive are those of the source. No stated cut-off is given here; in the data, active = GI50 up to about 1.1 µM and inactive = higher.

Some test systems named below: BT-549; COLO 205; DU-145; EKVX; HCT-15; Hs-578T; MCF7; MOLT-4; NCI-H23; RPMI-8226; SF-268; SF-295; SK-MEL-28; SNB-19; SW-620; TK-10; U-251; HCC 2998; HOP-92; NCI-H522.
What all share (assay): NCI-60 cell line screen, 48 h

Take `CN(Cc1cnc2nc(N)nc(N)c2n1)c1ccc(C(=O)NC(CO)CCCO)cc1` (configuration not stated): the GI50 is > 100 µM (inactive) in the assay on BT-549; > 100 µM (inactive) with COLO 205; > 100 µM (inactive) with DU-145; > 100 µM (inactive) in the assay on EKVX; above 100 µM in the assay on HCT-15; > 100 µM (inactive) with Hs-578T. In addition, the GI50 with MCF7, in the assay on MOLT-4, in the assay on NCI-H23, with RPMI-8226, in the assay on SF-268 and in the assay on SF-295 was > 100 µM (inactive) in each case. Moreover, the GI50 in the assay on SK-MEL-28, in the assay on SNB-19, in the assay with SW-620, in the assay on TK-10 and with U-251 was > 100 µM (inactive) throughout.
As to `CCOC(=O)C1CCCCc2sc(N)c(C#N)c21` (configuration not stated), the GI50 in the assay with BT-549 is > 100 µM (inactive); in the assay with COLO 205, > 100 µM (inactive); in the assay on EKVX, > 100 µM (inactive); in the assay on HCC 2998 it was > 100 µM (inactive); in the assay with HCT-15, above 100 µM; in the assay with HOP-92, > 100 µM (inactive). In addition, the GI50 in the assay on Hs-578T, with MCF7, in the assay on MOLT-4, with NCI-H23, in the assay on RPMI-8226 and with SK-MEL-28 was > 100 µM (inactive) throughout. The GI50 in the assay on SNB-19, in the assay with SW-620, in the assay with TK-10 and with U-251 was > 100 µM (inactive) throughout.
As to `CC1(C)O[C@@H](CP(c2ccccc2)c2ccccc2)[C@H](CP(c2ccccc2)c2ccccc2)O1`, the GI50 is 2.96 µM (inactive) in the assay with BT-549; 0.632 µM (active) in the assay on COLO 205; 11.7 µM (inactive) in the assay with DU-145; 6.38 µM (inactive) with EKVX; 12.3 µM with HCT-15; 8 µM (inactive) in the assay with HOP-92. For the same compound, the GI50 was 2.69 µM (inactive) in the assay on MOLT-4; 1.53 µM (inactive) in the assay with NCI-H23; 2.38 µM (inactive) in the assay on NCI-H522; 3.72 µM (inactive) with RPMI-8226; 5.96 µM (inactive) in the assay on SF-268; 5.62 µM (inactive) in the assay on SF-295. For the same compound, the GI50 in the assay on SK-MEL-28 is 12.3 µM (inactive); in the assay on SNB-19, 4.05 µM (inactive); with SW-620, 17.2 µM (inactive); with TK-10 it was 14.2 µM (inactive); in the assay with U-251 it was 3.66 µM (inactive).
Regarding `CC(=O)O[C@H]1CC[C@@]2(C)C(=CC[C@@H]3[C@@H]2CC[C@]2(C)c4nc(Cl)ccc4C[C@@H]32)C1`, the GI50 in the assay with BT-549 was 15.2 µM (inactive); in the assay on COLO 205, 39.1 µM (inactive); with DU-145, 80.4 µM (inactive); in the assay on EKVX, 25.2 µM (inactive); in the assay with HCC 2998 it was 45 µM (inactive); with HCT-15 it was 40 µM. Moreover, the GI50 in the assay on HOP-92 was 54.7 µM (inactive); with MCF7, 0.944 µM (active); in the assay with MOLT-4, 30.8 µM (inactive); with NCI-H23 it was 0.867 µM (active); with NCI-H522, 24.5 µM (inactive); in the assay with SF-268, 49.8 µM (inactive). For the same compound, the GI50 in the assay with SF-295 was 24.7 µM (inactive); in the assay on SK-MEL-28, 45.6 µM (inactive); in the assay on SNB-19, 93.8 µM (inactive); with SW-620 it was 59 µM (inactive); in the assay with TK-10, 54.3 µM (inactive); in the assay on U-251 it was 97.1 µM (inactive).
Regarding `C1CSCC2(COC2)CSCCSCC2(COC2)CS1`, the GI50 with BT-549 is > 100 µM (inactive); with COLO 205, > 100 µM (inactive); with DU-145, > 100 µM (inactive); in the assay on EKVX, > 100 µM (inactive); in the assay with HCC 2998, > 100 µM (inactive); with HCT-15, above 100 µM. The GI50 in the assay on HOP-92, in the assay with MCF7, in the assay with MOLT-4, with NCI-H23, with NCI-H522 and in the assay with SF-268 was > 100 µM (inactive) each time. The GI50 with SF-295, with SK-MEL-28, with SNB-19, in the assay with SW-620, in the assay on TK-10 and with U-251 was > 100 µM (inactive) in each case.
For `O=C1C[C@H]2[C@H](c3ccc(Br)cc3)[C@H]3C(=O)c4ccccc4NC(=O)[C@@H]3[C@@]2(O)c2ccccc2N1`, the GI50 in the assay on COLO 205 is 14.8 µM (inactive); in the assay with DU-145, 24 µM (inactive); in the assay with EKVX, 48.6 µM (inactive); with HCC 2998, 11.7 µM (inactive); in the assay with HCT-15, 27.9 µM; in the assay with HOP-92 it was < 0.01 µM (active). In addition, the GI50 with Hs-578T is 48 µM (inactive); in the assay with MCF7, 11.1 µM (inactive); in the assay on MOLT-4, 3.94 µM (inactive); with NCI-H23, 10.4 µM (inactive); in the assay on NCI-H522 it was 12.1 µM (inactive); in the assay on RPMI-8226 it was 9.82 µM (inactive). Besides, the GI50 in the assay on SF-268 was 19.1 µM (inactive); in the assay with SF-295 it was 24 µM (inactive); in the assay on SK-MEL-28 it was 26.5 µM (inactive); with SNB-19 it was 38.2 µM (inactive); with SW-620, 19.7 µM (inactive); in the assay with TK-10 it was 17.1 µM (inactive). Also, the GI50 in the assay on U-251 is 22.1 µM (inactive).
Turning to `CC(C)OC(=O)NCCn1cc(-c2ccccc2)nn1`, the GI50 in the assay with BT-549 was > 100 µM (inactive); in the assay on COLO 205, > 100 µM (inactive); in the assay with DU-145 it was > 100 µM (inactive); in the assay on EKVX, > 100 µM (inactive); in the assay on HCC 2998 it was > 100 µM (inactive); in the assay on HCT-15 it was above 100 µM. In addition, the GI50 in the assay with HOP-92, with MCF7, in the assay with MOLT-4, with NCI-H23, in the assay on NCI-H522 and with RPMI-8226 was > 100 µM (inactive) each time. The GI50 in the assay with SF-268, in the assay on SF-295, in the assay with SK-MEL-28, in the assay on SNB-19, in the assay with TK-10 and in the assay on U-251 was > 100 µM (inactive) throughout.
In the case of `CC(C)C1=Cc2ccc3c(c2C(=O)C1=O)CCCC3`, the GI50 in the assay with COLO 205 is 11.4 µM (inactive); in the assay on DU-145, 17.9 µM (inactive); in the assay on EKVX, 9.14 µM (inactive); in the assay with HCC 2998, 17.1 µM (inactive); in the assay on HCT-15, 3.08 µM; in the assay with HOP-92, 0.998 µM (active). The GI50 in the assay with Hs-578T was 20.2 µM (inactive); in the assay with MCF7, 1.59 µM (inactive); with MOLT-4 it was 0.78 µM (active); in the assay with NCI-H23 it was 9.42 µM (inactive); with NCI-H522, 2.27 µM (inactive); in the assay with RPMI-8226 it was 2.12 µM (inactive). Further, the GI50 is 7.11 µM (inactive) in the assay on SF-268; 12.8 µM (inactive) with SF-295; 7.5 µM (inactive) in the assay with SK-MEL-28; 17.9 µM (inactive) in the assay on SNB-19; 3.3 µM (inactive) with SW-620; 2.52 µM (inactive) in the assay with TK-10. Besides, in the assay with U-251, the GI50 is 19.1 µM (inactive).
